Read-outs that look alike come from different tables or passages of the source. Marks after values point to notes of the source that are not given here.
Experiments:
[1] = tested on: T. cruzi Queretaro strain epimastigotes; assay: Growth of epimastigotes cultured in vitro (motile parasites counted, relative growth); assay type: cell-based, Trypanosoma cruzi; conditions: for Epi ED50 (initial screening): initial screening done in 5 mL culture; for S.I. LD50/ED50: HFF1 LD50 / epimastigote ED50; for IC50: Trypanosoma cruzi, read-out: Epi ED50; for antiparasitic effect, summary in words: epimastigotes and trypomastigotes, summary of Table 2
Experimental: Epimastigotes were grown at 28 °C.
Epimastigotes were grown in LIT medium at the exponential phase and aliquots of 1 × 10^5 parasites were dispensed in 200 µL/well in a 96-well culture plate (Corning; NY, USA). […] Control samples without the compounds were supplemented with the maximum amount of vehicle used. […] Afterwards, the number of mobile epimastigotes (motility as parameter of viability) was counted in a Neubauer chamber. Relative growth is the difference of the final density of parasites after 24 h of treatment with the compound minus the density of parasites at time 0 of exposure; these differences were further normalized to the relative growth of the culture without compound. Plots of the percentage of relative growth against compound concentration were built and data adjusted to dose–response equation with the Origin Pro software (Origin Pro version 8.0) to calculate the concentration at which the variable is decreased by 50%.

[2] = tested on: HFF1 human foreskin fibroblasts; assay: Viability of human foreskin fibroblasts (trypan blue exclusion); conditions: for HFF1 LD50: human
Experimental: To evaluate the effect on cell viability, HFF1 cells cultured and washed as above were dispensed in a 96 well plate to a concentration of 1 × 10^4 cells/well in 0.2 mL and incubated for 24 h at 37 °C for adherence. […] To determine viability, cells were detached by trypsinization and then collected, and viability was determined by trypan blue exclusion.

[3] = tested on: T. cruzi Queretaro strain trypomastigotes; assay: Viability of trypomastigotes (motility as parameter of viability); assay type: cell-based; conditions: Trypanosoma cruzi, read-out: Trypo LD50
Experimental: For the primary infection, 20,000 HFF1 cells/mL were inoculated in 5 mL DMEM supplemented with 10% FBS in a 175 cm^2 flask (Corning; Corning, NY, USA;) and cultivated at 37 °C and 5% CO2 for 24 h for adherence. Afterwards, the medium was changed to DMEM supplemented with 2% FBS and the cells were infected with 10 × 10^6 epimastigotes previously collected and washed with 10 mL DMEM without FBS. The cells were incubated for 48 h at 37 °C and 5% CO2 and later washed every 24 h with DMEM with 2%FBS until trypomastigotes liberation (5–7 days post infection).
For the secondary infection, LLC-MK2 cells (epithelial cells from the kidney of an adult monkey) were infected in a similar fashion to the primary infection, but using 1 × 10^6 trypomastigotes obtained from the primary infection. The released trypomastigotes were used immediately for drug treatment.
The number of mobile trypomastigotes (motility as parameter of viability) was determined using a Neubauer chamber. Data were processed as above.

[4] = 120 h, epimastigote growth, 5 days, single initial pulse of compound
[5] = epimastigote relative growth, 24 h treatment, 96-well plate
[6] = trypomastigote viability, 3 h treatment

## Nc1nc(N)c2cc(NCc3ccccc3[N+](=O)[O-])ccc2n1 [Compound 6]
[1]; epimastigote growth, 24 h
  Epi ED50 (initial screening): 143 * (2) µM

## Nc1nc(N)c2cc(NC(=O)c3ccc([N+](=O)[O-])cc3)ccc2n1 [Compound 4, N-(2,4-Diaminequinazolin-6-yl)-4-nitrobenzamide]
[1]; 24 h
  S.I. LD50/ED50: ≥10
[1]; 5 days
  S.I. LD50/ED50: ≥10
[1]; [4]
  IC50: 10 µM
[1]; [5]
  IC50: 10 ± 0.4 µM
[2]; 24 h
  HFF1 LD50: >100 (6) µM
[2]; 5 days
  HFF1 LD50: >100 (2) µM
[3]; [6]
  LC50: 60 µM

## Nc1nc(N)c2cc(NCc3ccccc3OC(F)(F)F)ccc2n1 [Compound 12]
[1]; epimastigote growth, 24 h
  Epi ED50 (initial screening): 44 ± 3 (3) µM

## Nc1nc(N)c2cc(NCc3ccc(Cl)cc3)ccc2n1 [Compound 10]
[1]; 24 h
  S.I. LD50/ED50: 13
[1]; 5 days
  S.I. LD50/ED50: ≥7
[1]; [4]
  IC50: 14 ± 1.2 µM
[1]; [5]
  IC50: 8.9 ± 2 µM
[2]; 24 h
  HFF1 LD50: 116 ± 13 (6) µM
[2]; 5 days
  HFF1 LD50: >100 (2) µM
[3]; [6]
  LC50: > 150 µM

## Nc1nc(N)c2cc(NCc3cc(F)ccc3F)ccc2n1 [Compound 11, N^6-(2,5-Difluorobenzyl)quinazoline-2,4,6-triamine]
[1]; 24 h
  S.I. LD50/ED50: ≥7
[1]; 5 days
  S.I. LD50/ED50: ≥3
[1]; [4]
  IC50: 20 ± 2 µM
[1]; [5]
  IC50: 9 ± 1.4 µM
[2]; 24 h
  HFF1 LD50: >60 (4) µM
[2]; 5 days
  HFF1 LD50: >60 (1) µM
[3]; [6]
  LC50: > 150 µM

## COc1cc(CNc2ccc3nc(N)nc(N)c3c2)cc(OC)c1OC [Compound 14, N^6-(3,4,5-Trimethoxybenzyl)quinazoline-2,4,6-triamine]
[1]; epimastigote growth, 24 h
  Epi ED50 (initial screening): >100 * (2) µM

## Nc1nc(N)c2cc(NC(=O)c3ccccc3[N+](=O)[O-])ccc2n1 [Compound 2, N-(2,4-Diaminequinazolin-6-yl)-2-nitrobenzamide]
[1]; 24 h
  S.I. LD50/ED50: ≥5
[1]; 5 days
  S.I. LD50/ED50: ≥6.7
[1]; [4]
  IC50: 15 ± 3 µM
[1]; [5]
  IC50: 19 ± 2 µM
[2]; 24 h
  HFF1 LD50: >100 (6) µM
[2]; 5 days
  HFF1 LD50: >100 (2) µM
[3]; [6]
  LC50: 95 µM

## O=C(Cn1ccnc1[N+](=O)[O-])NCc1ccccc1 [Bnz, N-benzyl-2-(2-nitroimidazol-1-yl) acetamide, reference compound]
[1]; 24 h
  S.I. LD50/ED50: 18
[1]; 5 days
  S.I. LD50/ED50: 7
[1]; [4]
  IC50: 17 ± 10 µM
[1]; [5]
  IC50: 9.4 ± 1.3 µM
[2]; 5 days
  cytotoxicity on HFF1: high cytotoxicity
  HFF1 LD50: 118 ± 14 (3) µM
[2]; HFF1, 24 h treatment
  concentration at which cytotoxicity started to show: > 50 µM
[2]; 24 h
  HFF1 LD50: 165 ± 27 (3) µM
[3]; [6]
  LC50: 183 µM

## Nc1nc(N)c2cc(NCc3cccc(Cl)c3)ccc2n1 [Compound 9]
[1]; 24 h
  S.I. LD50/ED50: 11
[1]; 5 days
  S.I. LD50/ED50: ≥12
[1]; [4]
  IC50: 8.1 ± 1.8 µM
[1]; [5]
  IC50: 7.6 ± 2.5 µM
[2]; 24 h
  HFF1 LD50: 85 ± 7 (6) µM
[2]; 5 days
  HFF1 LD50: >100 (2) µM
[3]; [6]
  LC50: > 150 µM

## Nc1nc(N)c2cc(NC(=O)c3ccccc3)ccc2n1 [Compound 1, N-(2,4-Diaminequinazolin-6-yl)benzamide]
[1]; [4]
  IC50: > 100 µM
[1]; [5]
  IC50: > 100 µM
[1]
  antiparasitic effect, summary in words: did not showed an effect in parasites nor in cells
[2]; 24 h treatment
  cytotoxicity on HFF1: did not show either cytotoxicity or parasiticidal effects
[2]; 24 h
  HFF1 LD50: >100 (6) µM
[2]; 5 days
  HFF1 LD50: >100 (2) µM
[3]; 3 h
  LC50: > 150 µM

## Nc1nc(N)c2cc(NCc3ccccc3)ccc2n1 [Compound 5]
[1]; 24 h
  S.I. LD50/ED50: ≥5
[1]; [4]
  IC50: 14 ± 2 µM
[1]; [5]
  IC50: 13 ± 3 µM
[2]; 24 h
  HFF1 LD50: >60 (4) µM
[2]; 5 days
  HFF1 LD50: 26 (2) µM
[3]; 3 h
  LC50: > 150 µM

## Nc1nc(N)c2cc(NC(=O)c3cccc([N+](=O)[O-])c3)ccc2n1 [Compound 3, N-(2,4-Diaminequinazolin-6-yl)-3-nitrobenzamide]
[1]; 24 h
  S.I. LD50/ED50: ≥42
[1]; 5 days
  S.I. LD50/ED50: ≥11
[1]; [4]
  IC50: 8.9 µM
[1]; [5]
  IC50: 2.4 ± 0.4 µM
[2]; 24 h
  HFF1 LD50: >100 (6) µM
[2]; 5 days
  HFF1 LD50: >100 (2) µM
[3]; [6]
  LC50: 50 µM

## CC1CS(=O)(=O)CCN1/N=C/c1ccc([N+](=O)[O-])o1 (stereo not drawn) [Nfx, (E)-N-(3-methyl-1,1-dioxo-1,4-thiazinan-4-yl)-1-(5-nitrofuran-2-yl) methanimine, reference compound]
[1]; [4]
  IC50: 11.8 ± 0.1 µM
[1]; [5]
  IC50: 3.8 ± 1.2 µM

## Nc1nc(N)c2cc(NCc3ccc([N+](=O)[O-])cc3)ccc2n1 [Compound 7]
[1]; epimastigote growth, 24 h
  Epi ED50 (initial screening): >100 * (2) µM

## Nc1nc(N)c2cc(NCc3ccccc3Cl)ccc2n1 [Compound 8]
[1]; 24 h
  S.I. LD50/ED50: 4
[1]; [4]
  IC50: 6.6 ± 0.5 µM
[1]; [5]
  IC50: 2.3 ± 0.5 µM
[1]
  antiparasitic effect, summary in words: highly toxic for parasites and fibroblasts
[2]; 24 h
  HFF1 LD50: 8.6 ± 2 (4) µM
[2]; 5 days
  HFF1 LD50: 8 (2) µM
[3]; 3 h
  LC50: 59 µM

## Nc1nc(N)c2cc(NCc3cccc(O)c3)ccc2n1 [Compound 13]
[1]; epimastigote growth, 24 h
  Epi ED50 (initial screening): >100 * (2) µM

From publication PMC11435156, “Exploring Quinazoline Nitro-Derivatives as Potential Antichagasic Agents: Synthesis and In Vitro Evaluation” (Molecules, 2024)
